Test results from patent publication US10703971B2, “Chemiluminescent substrates” (Beckman Coulter, Inc., priority 2016, dated 2020).

Experiments:
alkaline phosphatase [1] = assay: Alternative cationic aromatic compounds, Imax on Turner 20/20e luminometer; settings: compound used as cationic aromatic compound (CAC) in the formulation
alkaline phosphatase [2] = assay: Stability Test A: luminescence of the AP substrate formulation in a micro-titer plate after injection of AP; format: biochemical; settings: 50% more of the named component added to a single lot of APS-5
Protocol: An aliquot (100 μL) of AP substrate formulation was added to a micro-titer plate well (8 replicates for each formulation). The plate was placed in a luminescence plate reader (Luminoskan, Labtech) and to each well was injected 20 μL of AP solution (2 ng/mL). Luminescence signal was read after 30 seconds and intergraded for 2 seconds.

[3] = system: Beckman Coulter System Check ALP; assay: Stability of chemiluminescent compounds I in two buffer systems, signal RLU of samples stored at two temperatures; format: biochemical
Protocol: 3.25 mg/L Lucigenin, 10 mg/L Sodium Sulfite. The second was based on the present invention and included AMPD 0.1 M pH 9.70 containing 0.5 g/L STS, 1 g/L PEG (Mw=35,000), 3.25 mg/L Lucigenin, 10 mg/L Sodium Sulfite. Various chemiluminescent compounds I shown below were added to 200 mL aliquots of each buffer at 0.15 g/L.
Each formulation was split into ˜100 mL halves with one kept at ˜5° C. and the other kept at −30° C.
Material was tested periodically over two weeks measuring the relative change in signal RLU between the two storage conditions. Formulations were tested in 96-well plates by comparing samples at stored at two temperatures to reduce the variability associated with enzymes/temperature/day to day. The samples were incubated at 37° C. for 30 minutes on the instrument 20 uL of enzyme (prepared by mixing 1 mL of Beckman Coulter System Check ALP with 640 mL of the Sample Diluent Buffer) were injected into 200 uL of formulation. Kinetic signal was measured at ˜29 seconds after injection of ALP solution. 15-16 data points (wells) were measured for each Buffer/Temperature/Time point (Well A1 is excluded due to variation in injection volume).

SMILES | I max RLU (Turner 20/20e luminometer with filter) (alkaline phosphatase [1]) [RLU] | further results
C[n+]1c2ccccc2c(-c2c3ccccc3[n+](C)c3ccc(Cl)cc23)c2ccccc21 | 1600 | –
C[n+]1c2ccccc2c(-c2c3ccccc3[n+](C)c3ccc(Cl)cc23)c2cc(Cl)ccc21 | 454 | –
CCCCCCCCCCCCOS(=O)(=O)[O-].[Na+] [SDS, sodium dodecyl sulfate] | – | Performance (alkaline phosphatase [2]): 70.5%
O=S([O-])[O-].[Na+].[Na+] [Sodium Sulfite, sodium sulfite] | – | Performance (alkaline phosphatase [2]): 100.1%
C[n+]1c2ccccc2c(-c2c3ccccc3cc3ccccc23)c2cc(Cl)ccc21 | 1037 | –
C1=c2cc[n+]3c(c2=CCC1)-c1c2c(cc[n+]1CC3)=CCCC=2 | 500 | –
CN1c2ccccc2C(=C(OP(=O)(O)O)Sc2ccccc2)c2ccccc21 [Compound 3] | – | Signal Loss at 30° C. (slope, % loss/Day) ([3]; 0.15 g/L compound in AMPD buffer system (AMPD 0.1 M pH 9.70, STS, PEG 35,000, lucigenin, sodium sulfite)): 0.53% loss/Day; Signal Loss at 30° C. (slope, % loss/Day) ([3]; 0.15 g/L compound in TRIS-Tween buffer system (Tris 0.3 M pH 9.35, SDS, Tween-20, lucigenin, sodium sulfite)): 0.61% loss/Day
C[n+]1ccc2c(c1-c1c3c(cc[n+]1C)=CCCC=3)=CCCC=2 | 41 | –
